This passage reports IC50 results from patent publication US20150105429A1, “BENZYL SULFONAMIDE DERIVATIVES AS RORC MODULATORS” (Genentech, Inc., priority 2011, published 2015).

The assay deals with T1, RORc ligand binding domain (Homo sapiens, UniProt P51449).
T1 construct: host or cells: E. coli
T1 sequence (P51449 269-508 limits assumed): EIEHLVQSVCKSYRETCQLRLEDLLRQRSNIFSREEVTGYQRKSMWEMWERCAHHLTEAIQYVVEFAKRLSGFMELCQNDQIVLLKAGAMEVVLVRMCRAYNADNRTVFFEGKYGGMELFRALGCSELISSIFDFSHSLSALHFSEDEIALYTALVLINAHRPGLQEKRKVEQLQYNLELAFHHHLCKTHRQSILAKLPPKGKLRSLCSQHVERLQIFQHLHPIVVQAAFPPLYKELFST
The experiment in a line: In Vitro RORc Ligand Binding Assay. The settings on record: radioligand 25-[3H]hydroxycholesterol 6 nM; 0.6 ug/mL RORc receptor; 3 h at 25° C.; read-out: IC50 values (micromolar) for RORc affinity. How it is done: This assay was used to determine a compound's potency in inhibiting activity of RORc by determining, Kiapp, IC50, or percent inhibition values.
On day of the assay, 100 uL of 0.05% CHAPS (in deionized H2O) was added to all wells of the GFB Unifilter plate and allowed soak for 1 h. A wash buffer of 50 mM HEPES (pH 7.4), 150 mM NaCl, and 5 mM MgCl2 was prepared to wash the filter plate. To prepare an assay buffer, BSA was added to the wash buffer to reach 0.01% and DTT was added to reach 1 mM.
The 20× compound stocks were diluted in DMSO with Assay Buffer 4-fold to reach 5× the final test concentration in 25% DMSO (10 uL compound+30 uL Assay Buffer). Solutions were mixed by aspiration several times with a pipette set on 50 uL volume. For the assay, 10 uL of 5× compound stock solutions in 25% DMSO were added to the assay plate in duplicate.
For two point screening, 10 mM stock compound solutions were diluted in DMSO to obtain 200 uM (20× the high test concentration) and then diluted 10-fold further to reach 20 uM (20× the low test concentration). The 20× stocks were diluted 4-fold with Assay Buffer (10 uL compound+30 uL Assay Buffer) to reach 5× the test concentrations (50 uM and 5 uM) and 10 uL were added to two assay plates for the duplicate wells. With each concentration tested on 2 plates, each set of 80 compounds used 4 assay plates (1 uM and 10 uM, with n=2).
For 25-hydroxycholesterol in 25% DMSO/75% Assay Buffer; 10 uL per well was used for NSB samples. Wells for Total Binding and No Receptor sample determination contained 10 uL of 25% DMSO/75% Assay Buffer per well.
Radioligand (25-[^3H]hydroxycholesterol) Preparation
Added 20 uL to all wells to reach 6 nM final in the assay.
Stock receptor solution was diluted in assay buffer to obtain 1.5 ug/mL in Assay Buffer. 20 uL was added to all wells. For No R samples, 20 uL Assay Buffer was substituted for receptor solution.
Assay plates were 96-well polypropylene V-bottom plates. 10 uL of 5× compound in 25% DMSO/75% Assay Buffer was added to Test wells. 10 uL of 25% DMSO/75% Assay Buffer was added to Total Binding or No Receptor wells. 10 uL of 5 uM 25-hydroxycholesterol in 25% DMSO/75% Assay Buffer was added to NSB wells. […] 20 uL of 1.5 ug/mL RORc receptor was added to wells (or 40 uL Assay Buffer to No R wells). Following addition to the wells, the plates were incubated 3 h at 25° C.
Using a Packard Filtermate Harvester, the filter plates were washed 4 times following transfer of the incubated samples. Plates were dry-filtered completely (2 h at 50° C. or overnight at room temperature). 50 uL Microscint 0 was added to all wells and read on Topcount protocol Inverted.
Final concentrations were as follows: 50 mM HEPES buffer (pH 7.4); 150 mM NaCl; 1 mM DTT; 5 mM MgCl2; 0.01% BSA; 5% DMSO; 0.6 ug/mL RORc receptor; 6 nM 25-[^3H]hydroxycholesterol. For NSB wells, 1 uM 25-hydroxycholesterol was also present.

Broadly, the IC50 is the midpoint of a concentration-inhibition curve. As to `CC(C)CN([C@H](C)c1ccc(-c2ccc(C(N)=O)cc2)cc1)S(=O)(=O)Cc1ccccc1` [Compound 14, 4′-[(R)-1-(Isobutyl-phenylmethanesulfonyl-amino)-ethyl]-biphenyl-4-carboxylic acid amide], the IC50 came out at 0.128 µM.
For `CC(C)CN(Cc1cccc(-c2cccc(S(C)(=O)=O)c2)c1)S(=O)(=O)Cc1ccccc1` [Compound 67, N-isobutyl-N-((3′-(methylsulfonyl)-[1,1′-biphenyl]-3-yl)methyl)-1-phenylmethanesulfonamide] the value was 3 µM.
For `CC(C)CN(Cc1ccc(-c2ccc(S(C)(=O)=O)cc2)nc1)S(=O)(=O)Cc1ccccc1` [Compound 66, N-isobutyl-N-((6-(4-(methylsulfonyl)phenyl)pyridin-3-yl)methyl)-1-phenylmethanesulfonamide] the value was 0.77 µM.
For `CC(C)CN(Cc1ccc(-c2cccc(S(C)(=O)=O)c2)s1)S(=O)(=O)c1cccc(C#N)c1` [Compound 33, 3-Cyano-N-isobutyl-N-[5-(3-methanesulfonyl-phenyl)-thiophen-2-ylmethyl]-benzenesulfonamide] the value was 2.4 µM; for `CC(C)CN(Cc1ccc(-c2ccncc2)s1)S(=O)(=O)Cc1ccccc1` [Compound 38, N-Isobutyl-C-phenyl-N-(5-pyridin-4-yl-thiophen-2-ylmethyl)-methanesulfonamide], 0.614 µM; for `Cc1n[nH]c(C)c1-c1ccc(CN(CC(C)C)S(=O)(=O)Cc2ccccc2)cc1` [Compound 10, N-[4-(3,5-Dimethyl-1H-pyrazol-4-yl)-benzyl]-N-isobutyl-C-phenyl-methanesulfonamide], 2.8 µM.
Consider `O=S(=O)(Cc1ccccc1)N(Cc1ccc(-c2ccncc2)cc1F)CC(F)(F)F` [Compound 23, N-(2-Fluoro-4-pyridin-4-yl-benzyl)-C-phenyl-N-(2,2,2-trifluoro-ethyl)-methanesulfonamide], for which the IC50 was 0.282 µM.
For `CC(C)CN([C@H](C)c1ccc(-c2ccc(S(C)(=O)=O)cc2)cc1)S(=O)(=O)Cc1ccccc1` [Compound 21, N-Isobutyl-N-[(R)-1-(4′-methanesulfonyl-biphenyl-4-yl)-ethyl]-C-phenyl-methanesulfonamide] the value was 2.9 µM; for `CCN(Cc1ccc(-c2ccc(S(C)(=O)=O)cc2)s1)S(=O)(=O)Cc1ccccc1` [Compound 58, N-Ethyl-N-[5-(4-methanesulfonyl-phenyl)-thiophen-2-ylmethyl]-C-phenyl-methanesulfonamide], 3.1 µM.
For `CC(C)CN([C@H](C)c1ccc(-c2ccc(NS(C)(=O)=O)cc2)cc1)S(=O)(=O)Cc1ccccc1` [Compound 15, N-Isobutyl-N-[(R)-1-(4′-methanesulfonylamino-biphenyl-4-yl)-ethyl]-C-phenyl-methanesulfonamide] the value was 0.696 µM.
For `CC(C)CN(Cc1ccc(-c2cccc(S(C)(=O)=O)c2)s1)S(=O)(=O)c1cccc(Cl)c1` [Compound 26, 3-Chloro-N-isobutyl-N-[5-(3-methanesulfonyl-phenyl)-thiophen-2-ylmethyl]-benzenesulfonamide] the value was 0.188 µM; for `CC(C)CN([C@@H](C)c1ccc(-c2ccc(S(C)(=O)=O)cc2)cc1)S(=O)(=O)Cc1ccccc1` [Compound 18, N-Isobutyl-N-[(S)-1-(4′-methanesulfonyl-biphenyl-4-yl)-ethyl]-C-phenyl-methanesulfonamide], 0.168 µM; for `CC(C)CN(Cc1ccc(-c2cnn(C)c2)s1)S(=O)(=O)Cc1ccccc1` [Compound 45, N-Isobutyl-N-[5-(1-methyl-1H-pyrazol-4-yl)-thiophen-2-ylmethyl]-C-phenyl-methanesulfonamide], 0.612 µM.
Turning to `CC(C)CN(Cc1csc(-c2ccc(S(C)(=O)=O)cc2)c1)S(=O)(=O)Cc1ccccc1` [Compound 68, N-isobutyl-N-((5-(4-(methylsulfonyl)phenyl)thiophen-3-yl)methyl)-1-phenylmethanesulfonamide], the concentration for half-maximal inhibition (IC50) is 0.32 µM.
For `CC(C)CN(Cc1ccc(-c2ccc(S(C)(=O)=O)cc2)cn1)S(=O)(=O)Cc1ccccc1` [Compound 65, N-isobutyl-N-((5-(4-(methylsulfonyl)phenyl)pyridin-2-yl)methyl)-1-phenylmethanesulfonamide] the value was 2 µM; for `CC(C)CN(Cc1ccc(-c2cccnc2)s1)S(=O)(=O)Cc1ccccc1` [Compound 37, N-Isobutyl-C-phenyl-N-(5-pyridin-3-yl-thiophen-2-ylmethyl)-methanesulfonamide], 1.7 µM.
The same measure for `CC(C)CN(Cc1ccc(-c2ccnc(N)c2)s1)S(=O)(=O)Cc1ccccc1` [Compound 46, N-[5-(2-Amino-pyridin-4-yl)-thiophen-2-ylmethyl]-N-isobutyl-C-phenyl-methanesulfonamide]: 1.2 µM; for `CC(C)CN(Cc1ccc(-c2cncc(S(C)(=O)=O)c2)s1)S(=O)(=O)Cc1ccccc1` [Compound 44, N-Isobutyl-N-[5-(5-methanesulfonyl-pyridin-3-yl)-thiophen-2-ylmethyl]-C-phenyl-methanesulfonamide]: 2.5 µM; for `CC(C)CN([C@@H](C)c1ccc(-c2cccc(S(C)(=O)=O)c2)cc1)S(=O)(=O)Cc1ccccc1` [Compound 19, N-Isobutyl-N-[(S)-1-(3′-methanesulfonyl-biphenyl-4-yl)-ethyl]-C-phenyl-methanesulfonamide]: 0.691 µM.
The same measure for `Cc1nn(C)c(C)c1-c1ccc(CN(CC(C)C)S(=O)(=O)Cc2ccccc2)cc1` [Compound 3, N-Isobutyl-C-phenyl-N-[4-(1,3,5-trimethyl-1H-pyrazol-4-yl)-benzyl]-methanesulfonamide]: 1.7 µM.
In the case of `COCCN(Cc1ccc(-c2ccc(S(C)(=O)=O)cc2)s1)S(=O)(=O)Cc1ccccc1` [Compound 57, N-[5-(4-Methanesulfonyl-phenyl)-thiophen-2-ylmethyl]-N-(2-methoxy-ethyl)-C-phenyl-methanesulfonamide], the IC50 was 5.1 µM.
For `Cc1cc(CN(CC(C)C)S(=O)(=O)Cc2ccccc2)ccc1-c1ccc(S(C)(=O)=O)cc1` [Compound 24, N-Isobutyl-N-(4′-methanesulfonyl-2-methyl-biphenyl-4-ylmethyl)-C-phenyl-methanesulfonamide] the value was 0.011 µM.
The same measure for `CS(=O)(=O)c1cccc(-c2ccc(CN(Cc3ccc(F)cc3Cl)S(=O)(=O)Cc3ccccc3)cc2)c1` [Compound 2, N-(2-Chloro-4-fluoro-benzyl)-N-(3′-methanesulfonyl-biphenyl-4-ylmethyl)-C-phenyl-methanesulfonamide]: 2.8 µM.
The same measure for `Cc1cc(-c2ccc(S(C)(=O)=O)cc2)ccc1CN(CC(C)C)S(=O)(=O)Cc1ccccc1` [Compound 25, N-Isobutyl-N-(4′-methanesulfonyl-3-methyl-biphenyl-4-ylmethyl)-C-phenyl-methanesulfonamide]: 0.057 µM.
For `CC(C)CN(Cc1ccc(-c2ccc(C(=O)N(C)C)cc2)cc1)S(=O)(=O)Cc1ccccc1` [Compound 5, 4′-[(Isobutyl-phenylmethanesulfonyl-amino)-methyl]-biphenyl-4-carboxylic acid dimethylamide], the IC50 came out at 0.963 µM.
For the compound `CC(C)CN(Cc1ccc(-c2cccc(S(C)(=O)=O)c2)s1)S(=O)(=O)Cc1ccccc1F` [Compound 29, C-(2-Fluoro-phenyl)-N-isobutyl-N-[5-(3-methanesulfonyl-phenyl)-thiophen-2-ylmethyl]-methanesulfonamide], the IC50 was found to be 1.5 µM.
